Read-outs that look alike come from different tables or passages of the source.
Tests used:
[1] = test system: MCF7 breast cancer cell line; assay: Annexin V-FITC/PI apoptosis flow cytometry, MCF7; type: cell-based; settings: for early apoptotic cells: preliminary flow cytometry apoptosis studies; for UR % Late Apoptosis / LR % Early Apoptosis: 48 hours; for fraction of apoptotic cells (early, lower right quadrant): at the ritonavir IC50 (30 μM), FIG. 2
Method: Induction of apoptosis can be determined using the Annexin V-FITC/PI apoptosis detection kit (Oncagene, Boston, Mass.). For example, after plating at 5×10^5 in a 100-mm plate, cancer cells can be grown for 48 hours in complete medium in presence of a drug, including a compound or formula 1, and a control, such as vehicle (DMSO). The culture and drug exposure conditions for the apoptosis assays can be done across a range of 5 to 60 μmol/L drug. Cells can be harvested by trypsin treatment, washed with complete medium to neutralize the trypsin, and stained with PI and Annexin V-FITC. The events can then be analyzed using FACScan analysis and CellQuest software (Becton Dickinson). See Example 2.
(§1) Induction of apoptosis was studied in a MCF7 breast cancer cell line. Apoptotic cells were detected using an Annexin V-FITC/PI apoptosis detection kit (Oncagene, Boston, Mass.). After plating at 5×10^5 in a 100-mm plate, the cells were grown for 48 hours in complete medium in presence of M1, ritonavir, or vehicle (DMSO). The culture and drug exposure conditions for the apoptosis assays were done across a range of 5 to 60 μmol/L M1 and ritonavir. Cells were harvested by trypsin treatment, washed with complete medium to neutralize the trypsin, and stained with PI and Annexin V-FITC. A total of 1×10^4 events were analyzed per assay by FACScan analysis using CellQuest software (Becton Dickinson). Replicate assays were done to confirm the results.

[2] = test system: non-transformed human breast epithelial line MCF10A; assay: MTT proliferation assay, MCF10A; type: cell-based; settings: MCF-10A, 48 h
Method: M1 inhibition of proliferation of MCF7, T47D and MDA-MB-231 cell lines was studied. Cells (n=2000/well) were seeded in 96 well plates with drug or vehicle (DMSO) on D1 and after 48 h the cell number was determined by MTT assay. Each assay was performed with 8 measurements for each data point (See FIG. 1, wherein graph A corresponds to MCF7, graph B corresponds to T47D, and graph C corresponds to MDA-MB-231).
M1 inhibition of proliferation of MCF7 (ER+), T47D (ER+), MDA-MB-231 (triple negative), SKBR3 (ER−/Her2+), and the non-transformed mammary line MCF10A were studied. Cells (n=2000/well) were seeded in 96 well plates with drug or vehicle (DMSO) on D1 and after 48 h the cell number was determined by MTT assay.

[3] = test system: MCF7-her2 line; assay: MTT proliferation assay, MCF7-her2 line; type: cell-based; settings: MCF7-her2 line over-expressing her2; MTT after 48 h
[4] = test system: MDA-MB-231; assay: Western blot protein depletion, MDA-MB-231 (Example 4); type: cell-based
Method: (§2) Breast cancer cell lines MDA-MB-231, T47D and SKBR3 were used to study depletion of Hsp90 by M1 and ritonavir. Cells were incubated for 48 hours with 1) ritonavir (R) at its IC50 (20 μM for T47D and 40 μM for MDA-MB-231); 2) M1 at ritonavir's IC50; or DMSO (control). Cell extracts were made according to the method of Srirangam et al., Clin Cancer Res. 2006 Mar. 15; 12(6):1883-96. Briefly, nearly confluent cell monolayers were treated with drug or vehicle (DMSO) for 24 or 48 h. Cells were washed with PBS on ice and scraped in a RIPA buffer containing protease inhibitors including MG-132 and phosphatase inhibitors. The cell lysate protein content was determined by μBCA and equal amounts of protein were loaded per lane. Gel electrophoresis by SDS PAGE was performed with equal protein loading per lane (usually 30 μg) and the separated proteins were transferred to 0.45 μm nitrocellulose filters. The transfer was verified by Ponceau stain of the nitrocellulose filters. The filters were probed by chemiluminescent blotting and then exposed to X-ray film. The signal from the protein of interest was normalized to the GAPDH signal. Student's t-test was used to determine the significance of differences.

[5] = test system: SKBR3 (ER-/Her2+); assay: Annexin V-FITC/PI apoptosis flow cytometry, SKBR3; type: cell-based
Method: as §1
A similar study was performed using T47D (ER+), MDA-MB-231 (triple negative) and SKBR3 (ER−/Her2+) cell lines were performed as above.

[6] = Tolerability in nude mice (MTD, weight); type: in vivo; settings: for MTD: female, nude (nu-/nu-), mouse, in vivo
Method: Six-8 weeks old female nude mice (nu^−/nu^−) (Charles River Laboratories International, Inc., MA) were injected into a right mammary fat pad with 1×10^6 log-phase MDA-MB-231. Mice were monitored bi-weekly for weight and tumor growth. When tumors reached a volume of approximately 30-40 mm^3 (calculated according to the formula: volume (mm^3)=(length)(width)^2/2), mice were randomized into three groups (each group n=10). One group of mice was injected daily i.p. with ritonavir (20 mg/Kg in 100 μl of ethanol-Tween 80), the second with M1 (20 mg/Kg in 100 μl of ethanol-Tween 80), and the third with vehicle only (100 μl of ethanol-Tween 80). […] Mice were weighted and their tumors were measured twice a week for the entire duration of the treatment (42 days).

[7] = test system: T47D (ER+ line); assay: Western blot densitometry, T47D (Example 17); type: cell-based; design: % Reduction, Total Akt / % Reduction, Phospho Akt / % Reduction, ER-α: concentration or dose not given beside the values; settings: 24 or 48 hours
Method: An ER^+ line, T47D, was treated with M1 or ritonavir for 24 or 48 hours. The cells were grown to confluence and treated with drug or DMSO vehicle. The cells were scraped on ice into RIPA buffer containing protease inhibitors including MG-132 and phosphatase inhibitors as published (see Srirangam et al. Clincal Ca Research 2006). The RIPA lysate was subjected to electrophoresis, blotted and probed with the appropriate antibodies.

[8] = test system: T47D; assay: Western blot protein depletion, T47D (Example 4); type: cell-based
Method: as §2

[9] = test system: Hsp90; assay: 70 kDa Hsp90 fragment after treatment; type: cell-based; settings: data not shown
[10] = Table 1, below the IC50 for both drugs, 45 μM
[11] = Table 3, at the ritonavir IC50, 30 μM
[12] = Table 4, above the IC50 for both drugs, 45 μM

SMILES	early apoptotic cells ([1]; 45 μM)	UR % Late Apoptosis ([1]; Table 1, 45 μM)	LR % Early Apoptosis [1, 10]	LR % Early Apoptosis ([1]; Table 2, at the M1 IC50, 15 μM)	UR % Late Apoptosis ([1]; Table 2, at the M1 IC50, 15 μM)	LR % Early Apoptosis [1, 11]	UR % Late Apoptosis [1, 11]	LR % Early Apoptosis [1, 12]	UR % Late Apoptosis [1, 12]	fraction of apoptotic cells (early, lower right quadrant) [1]	IC50 ([2]; Example 1, MTT after 48 h)	IC50 ([2]; Example 6, MTT after 48 h)	IC50 [3]	G1/S regulatory protein Cyclin D1 ([4]; P<0.05)	fraction of apoptotic cells [5]	% Reduction, CDK2 [7]	% Reduction, CDK4 [7]	% Reduction, CDK6 [7]	% Reduction, Cyclin D1 [7]	% Reduction, ER-α [7]	further results
CC(C)c1nc(CN(C)C(=O)N[C@H](C(=O)N[C@@H](Cc2ccccc2)C[C@H](O)[C@H](Cc2ccccc2)NC(=O)OCc2cncs2)C(C)C)cs1 [ritonavir]	14%	23.0%	14.12%	13.83%	11.16%	15.11%	7.95%	17.10%	7.30%	17%	35 µM	31 µM	25 µM	reduced	11%	49.91%	23.99%	11.64%	42.87%	33.24%	Animal weight loss ([6]; 20 mg/Kg daily i.p., 42 days, FIG. 5C): did not occur; MTD ([6]; nude mice, read-out: maximum tolerated dose (MTD)): 40 mg/kg; % Reduction, Hsp90 [7]: 48.3%; % Reduction, Phospho Akt [7]: 9.98%; % Reduction, Total Akt [7]: 5.04%; G1/S regulatory protein Cyclin D1 ([8]; P<0.05): reduced; 70 kDa Hsp90 fragment, less abundant than with M1 [9]: 3 -fold
CC(C)c1nc(CN(C)C(=O)NC(C(=O)NC(Cc2ccccc2)CC(O)C(N)Cc2ccccc2)C(C)C)cs1 (stereo not shown) [M1, desthiazolyl ritonavir]	28%	34.74%	27.46%	9.42%	10.73%	39.74%	20.00%	31.95%	21.31%	32%	50 µM	45 µM	25 µM	reduced	78%	51.02%	2.23%	21.05%	45.64%	56.41%	reducing Hsp90 levels ([4]; 48 hours, at ritonavir's IC50 (40 μM)): more potent than ritonavir; reducing total Akt, phospho-Akt, GSK3beta, c-src, and survivin ([4]; versus ritonavir, P<0.05): more potent; MTD [6]: 20 mg/kg; % Reduction, Hsp90 [7]: 82.70%; % Reduction, Phospho Akt [7]: 56.36%; % Reduction, Total Akt [7]: 56.57%; reducing Hsp90 levels ([8]; 48 hours, at ritonavir's IC50 (20 μM)): more potent than ritonavir; G1/S regulatory protein Cyclin D1 ([8]; P<0.05): reduced; reducing ER alpha ([8]; versus ritonavir, P<0.05): more potent; reducing total Akt, phospho-Akt, GSK3beta, c-src, and survivin ([8]; versus ritonavir, P<0.05): more potent; major 70 kDa Hsp90 fragment [9]: observed

— patent publication US8501792B2, “Treating cancer with desthiazolyl ritonavir” (priority 2008, dated 2013)
